How the values were obtained:
JAK1 = JAK1 (Homo sapiens (Human), UniProt P23458); assay: Jak Biochemical HTRF Assay, JAK1; conditions: HTRF biochemical assay, GST-tagged catalytic domain; top concentration tested […]; read-out: JAK1 IC50
Text: (§1) Jak Biochemical HTRF Assay Protocol
(§2) Subsequent reagent additions employed an Agilent Bravo.

JAK2 = JAK2 (Homo sapiens (Human), UniProt O60674); assay: Jak Biochemical HTRF Assay, JAK2; conditions: HTRF biochemical assay, GST-tagged catalytic domain; top concentration tested […]
Text: as §1, §2

JAK1, sequence (P23458 875-1153): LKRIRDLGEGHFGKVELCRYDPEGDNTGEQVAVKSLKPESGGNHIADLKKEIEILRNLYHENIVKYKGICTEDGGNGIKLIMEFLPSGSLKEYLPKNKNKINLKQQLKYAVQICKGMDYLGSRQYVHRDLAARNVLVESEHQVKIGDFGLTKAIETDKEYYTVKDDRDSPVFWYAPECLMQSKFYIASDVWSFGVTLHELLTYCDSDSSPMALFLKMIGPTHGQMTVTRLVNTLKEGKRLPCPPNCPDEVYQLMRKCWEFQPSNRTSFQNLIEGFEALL
JAK2, sequence (O60674 849-1124): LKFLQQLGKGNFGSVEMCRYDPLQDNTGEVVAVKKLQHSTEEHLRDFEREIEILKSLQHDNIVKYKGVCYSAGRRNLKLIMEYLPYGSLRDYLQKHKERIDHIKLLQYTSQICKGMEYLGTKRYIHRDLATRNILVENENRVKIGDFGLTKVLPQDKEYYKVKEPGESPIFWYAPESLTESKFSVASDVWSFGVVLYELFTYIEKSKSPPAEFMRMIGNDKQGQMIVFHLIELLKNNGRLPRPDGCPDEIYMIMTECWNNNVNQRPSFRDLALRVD

Row | IC50 (JAK1) [nM] | IC50 (JAK2) [nM] | Structure (SMILES)
1 | 35 | 363 | N#CCC1(n2cc(C(N)=O)c(Nc3ccccc3)n2)CCN(C(=O)Cc2ccc(C(F)(F)F)cc2)CC1 [Example 34-30, 1-[4-(cyanomethyl)-1-{[4-(trifluoromethyl)phenyl]acetyl}piperidin-4-yl]-3-(phenylamino)-1H-pyrazole-4-carboxamide]
2 | 61 | 704 | N#CCC1(n2cc(C(N)=O)c(Nc3ccccc3)n2)CCN(C(=O)c2ccc(N3CCOCC3)cc2)CC1 [Example 34-31, 1-{4-(cyanomethyl)-1-[(4-morpholin-4-ylphenyl)carbonyl]piperidin-4-yl}-3-(phenylamino)-1H-pyrazole-4-carboxamide]
3 | 6 | 166 | N#CCC1(n2cc(C(N)=O)c(Nc3ccccc3)n2)CCN(C(=O)c2ccc3ccccc3n2)CC1 [Example 34-32, 1-[4-(cyanomethyl)-1-(quinolin-2-ylcarbonyl)piperidin-4-yl]-3-(phenylamino)-1H-pyrazole-4-carboxamide]
4 | 153 | 711 | N#CCC1(n2cc(C(N)=O)c(Nc3ccccc3)n2)CCN(C(=O)C(c2ccccc2)c2ccccc2)CC1 [Example 34-33, 1-[4-(cyanomethyl)-1-(diphenylacetyl)piperidin-4-yl]-3-(phenylamino)-1H-pyrazole-4-carboxamide]
5 | 60 | 830 | CN1CCN(c2ccc(C(=O)N3CCC(CC#N)(n4cc(C(N)=O)c(Nc5ccccc5)n4)CC3)cc2)CC1 [Example 34-34, 1-[4-(cyanomethyl)-1-{[4-(4-methylpiperazin-1-yl)phenyl]carbonyl}piperidin-4-yl] 3-(phenylamino)-1H-pyrazole-4-carboxamide]
6 | 44 | 248 | N#CCC1(n2cc(C(N)=O)c(Nc3ccccc3)n2)CCN(C(=O)CO)CC1 [Example 34-35, 1-[4-(cyanomethyl)-1-(hydroxyacetyl)piperidin-4-yl]-3-(phenylamino)-1H-pyrazole-4-carboxamide]
7 | 42 | 298 | CCC(=O)N1CC(CC#N)(n2cc(C(N)=O)c(Nc3ccccc3)n2)C1 [Example 34-36, 1-[3-(cyanomethyl)-1-propanoylazetidin-3-yl]-3-(phenylamino)-1H-pyrazole-4-carboxamide]
8 | 138 | 570 | CC(C)(C)C(=O)N1CC(CC#N)(n2cc(C(N)=O)c(Nc3ccccc3)n2)C1 [Example 34-37, 1-[3-(cyanomethyl)-1-(2,2-dimethylpropanoyl)azetidin-3-yl]-3-(phenylamino)-1H-pyrazole-4-carboxamide]
9 | 0.9 | 42 | N#CCC1(n2cc(C(N)=O)c(Nc3ccnc(F)c3)n2)CCN(C(=O)CC2CCCO2)CC1 (stereo not shown) [Example 34-39, 1-[4-(cyanomethyl)-1-(tetrahydrofuran-2-ylacetyl)piperidin-4-yl]-3-[(2-fluoropyridin-4-yl)amino]-1H-pyrazole-4-carboxamide]
10 | 0.1 | 2 | CC(F)(F)C(=O)N1CCC(CC#N)(n2cc(C(N)=O)c(Nc3ccnc(F)c3)n2)CC1 [Example 34-40, 1-[4-(cyanomethyl)-1-(2,2-difluoropropanoyl)piperidin-4-yl]-3 [(2-fluoropyridin-4-yl)amino]-1H-pyrazole-4-carboxamide]
11 | 3 | 48 | CC(CF)(CF)C(=O)N1CCC(CC#N)(n2cc(C(N)=O)c(Nc3ccnc(F)c3)n2)CC1 [Example 34-41, 1-{4-(cyanomethyl)-1-[3-fluoro-2-(fluoromethyl)-2-methylpropanoyl]piperidin-4-yl}-3-[(2-fluoropyridin-4-yl)amino]-1H-pyrazole-4-carboxamide]
12 | 3 | 96 | COCC(=O)N1CCC(CC#N)(n2cc(C(N)=O)c(Nc3ccnc(F)c3)n2)CC1 [Example 34-42, 1-[4-(cyanomethyl)-1-(methoxyacetyl)piperidin-4-yl]-3-[(2-fluoropyridin-4-yl)amino]-1H-pyrazole-4-carboxamide]
13 | 11 | 234 | CC(C)(O)C(=O)N1CCC(CC#N)(n2cc(C(N)=O)c(Nc3ccnc(F)c3)n2)CC1 [Example 34-43, 1-[4-(cyanomethyl)-1-(2-hydroxy-2-methylpropanoyl)piperidin-4-yl]-3-[(2-fluoropyridin-4-yl)amino]-1H-pyrazole-4-carboxamide]
14 | 2 | 63 | Cn1cc(C(=O)N2CCC(CC#N)(n3cc(C(N)=O)c(Nc4ccnc(F)c4)n3)CC2)cn1 [Example 34-44, 1-{4-(cyanomethyl)-1-[(1-methyl-1H-pyrazol-4-yl)carbonyl]piperidin-4-yl}-3-[(2-fluoropyridin-4-yl)amino]-1H-pyrazole-4-carboxamide]
15 | 1 | 46 | N#CCC1(n2cc(C(N)=O)c(Nc3ccnc(F)c3)n2)CCN(C(=O)CC2CC2)CC1 [Example 34-45, 1-[4-(cyanomethyl)-1-(cyclopropylacetyl)piperidin-4-yl]-3-[(2-fluoropyridin-4-yl)amino]-1H-pyrazole-4-carboxamide]
16 | 2 | 139 | CC(C)[C@@H](O)C(=O)N1CCC(CC#N)(n2cc(C(N)=O)c(Nc3ccnc(F)c3)n2)CC1 [Example 34-46, 1-{4-(cyanomethyl)-1-[(2R)-2-hydroxy-3-methylbutanoyl]piperidin-4-yl}-3-[(2-fluoropyridin-4-yl)amino]-1H-pyrazole-4-carboxamide]
17 | 2 | 79 | CC(C)[C@H](O)C(=O)N1CCC(CC#N)(n2cc(C(N)=O)c(Nc3ccnc(F)c3)n2)CC1 [Example 34-47, 1-{4-(cyanomethyl)-1-[(2S)-2-hydroxy-3-methylbutanoyl]piperidin-4-yl}-3-[(2-fluoropyridin-4-yl)amino]-1H-pyrazole-4-carboxamide]
18 | 0.3 | 13 | CC(C(=O)N1CCC(CC#N)(n2cc(C(N)=O)c(Nc3ccnc(F)c3)n2)CC1)C(F)(F)F (stereo not shown) [Example 34-48, 1-[4-(cyanomethyl)-1-(3,3,3-trifluoro-2-methylpropanoyl)piperidin-4-yl]-3-[(2-fIuoropyridin-4-yl)amino]-1H-pyrazole-4-carboxamide]
19 | 0.2 | 9 | N#CCC(=O)N1CCC(CC#N)(n2cc(C(N)=O)c(Nc3ccnc(F)c3)n2)CC1 [Example 34-49, 1-[1-(cyanoacetyl)-4-(cyanomethyl)piperidin-4-yl]-3-[(2-fIuoropyridin-4-yl)amino]-1H-pyrazole-4-carboxamide]
20 | 0.2 | 8 | CC(C)(O)CC(=O)N1CCC(CC#N)(n2cc(C(N)=O)c(Nc3ccnc(F)c3)n2)CC1 [Example 34-50, 1-[4-(cyanomethyl)-1-(3-hydroxy-3-methylbutanoyl)piperidin-4-yl]-3-[(2-fluoropyridin-4-yl)amino]-1H pyrazole-4-carboxamide]
21 | 4 | 37 | N#CCC1(n2cc(C(N)=O)c(Nc3ccnc(F)c3)n2)CCN(C(=O)C2(C(F)(F)F)CCC2)CC1 [Example 34-51, 1-[4-(cyanomethyl)-1-{[1-(trifluoromethyl)cyclobutyl]carbonyl}piperidin-4-yl]-3-[(2-fluoropyridin-4-yl)amino]-1H-pyrazole-4-carboxamide]
22 | 4 | 154 | N#CCC1(n2cc(C(N)=O)c(Nc3ccnc(F)c3)n2)CCN(C(=O)Cn2ccnc2)CC1 [Example 34-52, 1-[4-(cyanomethyl)-1-(1H-imidazol-1-ylacetyl)piperidin-4-yl]-3-[(2-fluoropyridin-4-yl)amino]-1H-pyrazole-4-carboxamide]
23 | 0.3 | 15 | N#CCC1(n2cc(C(N)=O)c(Nc3ccnc(F)c3)n2)CCN(C(=O)C2CC(F)(F)C2)CC1 [Example 34-53, 1-{4-(cyanomethyl)-1-[(3,3-difluorocyclobutyl)carbonyl]piperidin-4-yl}-3-[(2-fluoropyridin-4-yl)amino]-1H-pyrazole-4-carboxamide]
24 | 0.6 | 44 | CC(C)(C)CC(=O)N1CCC(CC#N)(n2cc(C(N)=O)c(Nc3ccnc(F)c3)n2)CC1 [Example 34-54, 1-[4-(cyanomethyl)-1-(3,3-dimethylbutanoyl)piperidin-4-yl]-3-[(2-fluoropyridin-4-yl)amino]-1H-pyrazole-4-carboxamide]
25 | 1 | 28 | CC(C)(C(=O)N1CCC(CC#N)(n2cc(C(N)=O)c(Nc3ccnc(F)c3)n2)CC1)C(F)(F)F [Example 34-55, 1-[4-(cyanomethyl)-1-(3,3,3-trifluoro-2,2-dimethylpropanoyl)piperidin-4-yl]-3-[(2-fluoropyridin-4-yl)amino]-1H-pyrazole-4-carboxamide]
26 | 2 | 40 | N#CCC1(n2cc(C(N)=O)c(Nc3ccnc(F)c3)n2)CCN(C(=O)C2(C(F)(F)F)CC2)CC1 [Example 34-56, 1-[4-(cyanomethyl)-1-{[1-(trifluoromethyl)cyclopropyl]carbonyl}piperidin-4-yl]-3-[(2-fluoropyridin-4-yl)amino]-1H-pyrazole-4-carboxamide]
27 | 0.1 | 9 | N#CCC1(n2cc(C(N)=O)c(Nc3ccnc(F)c3)n2)CCN(C(=O)CCC(F)(F)F)CC1 [Example 34-57, 1-[4-(cyanomethyl)-1-(4,4,4-trifluorobutanoyl)piperidin-4-yl]-3-[(2-fluoropyridin-4-yl)amino]-1H-pyrazole-4-carboxamide]
28 | 0.5 | 22 | CS(=O)(=O)CC(=O)N1CCC(CC#N)(n2cc(C(N)=O)c(Nc3ccnc(F)c3)n2)CC1 [Example 34-58, 1-{4-(cyanomethyl)-1-[(methylsulfonyl)acetyl]piperidin-4-yl}-3-[(2-fluoropyridin-4-yl)amino]-1H-pyrazole-4-carboxamide]
29 | 0.2 | 3 | CCC(F)(F)C(=O)N1CCC(CC#N)(n2cc(C(N)=O)c(Nc3ccnc(F)c3)n2)CC1 [Example 34-59, 1-[4-(cyanomethyl)-1-(2,2-difluorobutanoyl)piperidin-4-yl]-3-[(2-fluoropyridin-4-yl)amino]-1H-pyrazole-4-carboxamide]
